Source: patent US11072616B2, “Cyclic peptides targeting alpha-4-beta-7 integrin” (Zealand Pharma A/S, priority 2015, dated 2021)
Each block holds one compound with its values, some of them ahead of it.

Legend:
[1] = tested on: integrin alpha-4-beta-7-expressing T lymphocytes; assay: In vivo T lymphocyte trafficking analyses in DSS-treated mice (single dose); design: species or system C57Bl/6 mice; details: 5-6 h
Method: In Vivo T Lymphocyte Trafficking Analyses
Animals. Female C57131/6 mice (Charles River, St-Constant, Qc), weighting 16-19 g at delivery were used for this study. Following arrival in the animal facility, all animals were subjected to a general health evaluation. An acclimation period of 7-14 days was allowed before the beginning of the study.
Administration of DSS. Dextran sulfate sodium (DSS) was administered to C57Bl/6 mice through addition to their drinking water at 2-3%. Mice accessed the DSS-treated water ad libitum over a 5-day period. Body weight and disease activity index (“DAI”) were measured on Day 5 in order to distribute DSS-treated animals in two uniform groups prior to dosing. Specific symptoms associated with colitis were scored based on the severity of each particular symptoms: 1—blood in stool (negative hemoccult, positive hemoccult, blood traces in stool visible, rectal bleeding); 2—stool consistency (normal, soft but still formed, very soft, diarrhea); 3—posture and fur (normal; ruffled fur; ruffled fur combined to slight hunched posture and slight dehydration; ruffled fur combined to hunched posture, dehydration and altered walking; moribund (euthanasia is mandatory before the animal reach this point). The overall DAI score was the sum of the three parameters (maximum score of 9). DAI assessment was performed on Day 5 only (prior to dosing). […]

[2] = in vivo
[3] = Plasma protein binding, equilibrium dialysis, rat plasma; details: for % recovery: rat plasma dialysis; for fraction unbound at 5 h, 1 microM: 50% plasma
[4] = Plasma protein binding, equilibrium dialysis, mouse plasma; details: for % recovery: mouse plasma dialysis; for fraction unbound at 5 h, 1 microM: 50% plasma
[5] = not given; remark: listed apart in the source
[6] = molecular target: T1, CYP1A2 (Homo sapiens, UniProt P05177); assay: in vitro; details: microsomes
T1 sequence (P05177 1-516): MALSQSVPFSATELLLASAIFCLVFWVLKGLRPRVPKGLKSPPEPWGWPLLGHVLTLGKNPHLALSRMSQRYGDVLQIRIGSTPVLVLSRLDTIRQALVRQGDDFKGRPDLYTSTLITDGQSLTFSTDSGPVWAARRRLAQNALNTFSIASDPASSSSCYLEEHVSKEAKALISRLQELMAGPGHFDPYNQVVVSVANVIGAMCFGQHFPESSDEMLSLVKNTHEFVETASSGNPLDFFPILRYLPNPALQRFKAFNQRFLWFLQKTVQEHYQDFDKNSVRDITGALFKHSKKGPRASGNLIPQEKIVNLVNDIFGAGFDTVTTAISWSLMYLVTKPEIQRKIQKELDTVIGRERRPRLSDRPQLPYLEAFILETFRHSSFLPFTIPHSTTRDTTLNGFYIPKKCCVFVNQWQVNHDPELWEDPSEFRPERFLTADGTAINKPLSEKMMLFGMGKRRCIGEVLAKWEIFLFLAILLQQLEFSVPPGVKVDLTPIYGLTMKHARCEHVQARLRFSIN
Method: (§1) Cytochrome P450 Inhibition Assay
(§2) Analyses were performed using standard LC/MS/MS protocols.

[7] = molecular target: CYP3A4 (Homo sapiens, UniProt P08684); assay: in vitro; details: microsomes
CYP3A4, sequence (P08684 whole entry): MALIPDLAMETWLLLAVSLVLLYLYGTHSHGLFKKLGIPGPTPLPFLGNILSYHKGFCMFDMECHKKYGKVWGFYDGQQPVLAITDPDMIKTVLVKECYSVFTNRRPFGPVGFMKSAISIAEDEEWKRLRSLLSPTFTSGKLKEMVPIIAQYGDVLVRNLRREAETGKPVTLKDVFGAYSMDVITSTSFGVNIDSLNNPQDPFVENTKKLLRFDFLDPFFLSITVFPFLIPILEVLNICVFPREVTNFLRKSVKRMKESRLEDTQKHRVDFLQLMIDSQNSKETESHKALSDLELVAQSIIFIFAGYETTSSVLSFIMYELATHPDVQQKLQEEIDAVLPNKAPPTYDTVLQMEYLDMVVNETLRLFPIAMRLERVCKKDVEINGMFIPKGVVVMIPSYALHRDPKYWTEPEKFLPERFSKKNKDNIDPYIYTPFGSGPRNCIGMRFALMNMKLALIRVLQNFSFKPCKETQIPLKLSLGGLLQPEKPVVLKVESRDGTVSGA
Method: as §1, §2

[8] = molecular target: CYP2C9 (Homo sapiens, UniProt P11712); assay: in vitro; details: microsomes
CYP2C9, sequence (P11712 whole entry): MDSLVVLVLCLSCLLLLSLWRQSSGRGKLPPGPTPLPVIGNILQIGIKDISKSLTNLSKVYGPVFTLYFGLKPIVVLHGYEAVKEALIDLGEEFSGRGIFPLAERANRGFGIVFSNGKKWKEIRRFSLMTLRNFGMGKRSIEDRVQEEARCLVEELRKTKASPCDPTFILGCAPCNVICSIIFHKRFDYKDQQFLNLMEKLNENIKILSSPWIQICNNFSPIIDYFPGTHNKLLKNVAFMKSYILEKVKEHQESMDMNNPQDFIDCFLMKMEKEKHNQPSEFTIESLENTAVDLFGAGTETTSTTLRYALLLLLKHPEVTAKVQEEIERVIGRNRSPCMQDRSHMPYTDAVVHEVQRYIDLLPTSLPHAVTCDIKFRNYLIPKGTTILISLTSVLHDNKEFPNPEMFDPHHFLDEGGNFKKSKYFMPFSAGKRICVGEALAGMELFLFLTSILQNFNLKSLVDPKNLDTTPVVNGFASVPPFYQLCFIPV
Method: as §1, §2

[9] = molecular target: CYP2D6 (Homo sapiens, UniProt P10635); assay: in vitro; details: microsomes
CYP2D6, sequence (P10635 whole entry): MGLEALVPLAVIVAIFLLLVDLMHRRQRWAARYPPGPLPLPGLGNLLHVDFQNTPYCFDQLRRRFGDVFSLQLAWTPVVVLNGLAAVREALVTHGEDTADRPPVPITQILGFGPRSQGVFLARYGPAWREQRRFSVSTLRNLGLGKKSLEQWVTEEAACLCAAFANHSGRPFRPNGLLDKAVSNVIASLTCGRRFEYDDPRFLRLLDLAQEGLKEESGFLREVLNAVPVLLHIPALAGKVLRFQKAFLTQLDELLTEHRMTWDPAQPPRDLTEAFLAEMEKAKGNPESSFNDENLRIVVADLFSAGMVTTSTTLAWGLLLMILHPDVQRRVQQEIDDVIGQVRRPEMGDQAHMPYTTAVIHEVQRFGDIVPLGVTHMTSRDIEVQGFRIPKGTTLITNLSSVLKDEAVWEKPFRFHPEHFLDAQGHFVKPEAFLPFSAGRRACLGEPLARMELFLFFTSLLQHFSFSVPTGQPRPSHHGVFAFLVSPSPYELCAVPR
Method: as §1, §2

[10] = Sprague-Dawley, rat, % unbound (Cbuffer/Cplasma) Rat plasma 1, replicate 1, 1 microM, 5 h
[11] = Sprague-Dawley, rat, % unbound (Cbuffer/Cplasma) Rat plasma 2, replicate 2, 1 microM, 5 h
[12] = Sprague-Dawley, rat, % unbound (Cbuffer/Cplasma) Rat plasma 3, replicate 3, 1 microM, 5 h
[13] = Sprague-Dawley, rat, % unbound (Cbuffer/Cplasma) Rat plasma Average, average of 3 replicates
[14] = CD-1, mouse, % unbound (Cbuffer/Cplasma) Mouse plasma 1, replicate 1, 1 microM, 5 h
[15] = CD-1, mouse, % unbound (Cbuffer/Cplasma) Mouse plasma 2, replicate 2, 1 microM, 5 h
[16] = CD-1, mouse, % unbound (Cbuffer/Cplasma) Mouse plasma 3, replicate 3, 1 microM, 5 h
[17] = CD-1, mouse, % unbound (Cbuffer/Cplasma) Mouse plasma Average, average of 3 replicates

SMILES: CC(C)C[C@@H]1NC(=O)CN(C)C(=O)[C@H](Cc2ccc(O)cc2)NC(=O)[C@@H]2CCCN2[C@H](C(=O)NC(C)(C)C)[C@H](C)NC(=O)[C@H]([C@@H](C)O)NC(=O)[C@H](CC(=O)O)NC1=O [ET2154]
- homing of T lymphocytes to the MLN ([1]; 200 mg/kg single oral dose): significant and robust attenuation of homing to the MLN
- oral bioavailability / absorption (in words) ([2]; mouse, po): low oral bioavailability

SMILES: CC(C)C[C@@H]1NC(=O)[C@H](Cc2ccccc2)NC(=O)[C@@H]2CCCN2[C@H](C(=O)NC(C)(C)C)[C@H](C)NC(=O)[C@H]([C@@H](C)O)NC(=O)[C@H](CC(=O)O)NC1=O [ET01792]
- IC50 [6]: > 15 µM
- IC50 [7]: > 15 µM
- IC50 [8]: > 15 µM
- IC50 [9]: > 15 µM
- % unbound (Cbuffer/Cplasma) Mouse plasma 1: 64.8%
- % unbound (Cbuffer/Cplasma) Mouse plasma 2: 52.9%
- % unbound (Cbuffer/Cplasma) Mouse plasma 3: 67.9%
- % unbound (Cbuffer/Cplasma) Mouse plasma Average: 61.9%
- homing of T lymphocytes to the MLN ([1]; 100 mg/kg single oral dose): significant reduction of homing to the MLN
- oral bioavailability / absorption (in words) ([2]; mouse, po): high oral bioavailability
- exposure (AUC0-tlast) ([2]; mouse, po, 40 mg/kg): 589 ng·h/mL
- maximum plasma concentration after the first dose ([2]; mouse, po, 48 mg/kg): ~1,600 ng/ml
- % recovery [3]: 97%
- Control buffer/Buffer at 0.1 uM Cdonor/Creceiver [4]: 80%
- % recovery [4]: 130%
- % unbound (Cbuffer/Cplasma) Rat plasma 1 [5]: 82.9%
- % unbound (Cbuffer/Cplasma) Rat plasma 2 [5]: 77.3%
- % unbound (Cbuffer/Cplasma) Rat plasma 3 [5]: 79.5%
- % unbound (Cbuffer/Cplasma) Rat plasma Average [5]: 79.9%

SMILES: Clc1ccc(COC(Cn2ccnc2)c2ccc(Cl)cc2Cl)c(Cl)c1 (stereo not drawn) [Miconazole, reference compound]
- IC50 ([8]; human): 0.32 µM

SMILES: CC[C@H](C)[C@@H]1NC(=O)[C@H](CCO)NC(=O)[C@H](CC(C)C)NC(=O)[C@H](Cc2ccc3ccccc3c2)NC(=O)[C@@H]2CCCN2[C@H](C(=O)NC(C)(C)C)[C@H](C)NC1=O [ET01842-01]
- IC50 ([6]; human): > 15 µM
- IC50 ([7]; human): 0.89 µM
- IC50 ([8]; human): > 15 µM
- IC50 ([9]; human): > 15 µM

SMILES: CC(C)C[C@H]1C(=O)N[C@@H](C(C)C)C(=O)N[C@@H](Cc2ccccc2)C(=O)N[C@@H](C)[C@@H](C(=O)NC(C)(C)C)N2CCC[C@H]2C(=O)N[C@@H]([C@@H](C)O)C(=O)N1C [ET00328-01]
- IC50 ([6]; human): > 15 µM
- IC50 ([7]; human): 9.7 µM
- IC50 ([8]; human): > 15 µM
- IC50 ([9]; human): > 15 µM

SMILES: CC(C)NCC(O)COc1cccc2ccccc12 (stereo not drawn) [Propranolol, reference compound]
- recovery at 5 h, 1 microM ([3]; Sprague-Dawley, rat, 50% plasma (K2EDTA)): 79%
- fraction unbound at 5 h, 1 microM [3, 10]: 0.146
- fraction unbound at 5 h, 1 microM [3, 11]: 0.147
- fraction unbound at 5 h, 1 microM [3, 12]: 0.147
- fraction unbound at 5 h, 1 microM [3, 13]: 0.147
- fraction unbound at 5 h, 1 microM ([3]; Sprague-Dawley, rat, free fraction (% unbound), rat plasma): ~0.15
- recovery at 5 h, 1 microM ([4]; CD-1, mouse, 50% plasma (K2EDTA)): 93%
- fraction unbound at 5 h, 1 microM [4, 14]: 0.229
- fraction unbound at 5 h, 1 microM [4, 15]: 0.201
- fraction unbound at 5 h, 1 microM [4, 16]: 0.201
- fraction unbound at 5 h, 1 microM [4, 17]: 0.21
- fraction unbound at 5 h, 1 microM ([4]; CD-1, mouse, free fraction (% unbound), mouse plasma): ~0.21

SMILES: CC(C)C[C@@H]1NC(=O)[C@H](Cc2ccc(-c3ccccc3)cc2)NC(=O)[C@@H]2CCCN2[C@H](C(=O)NC(C)(C)C)[C@H](C)NC(=O)[C@H]([C@@H](C)O)NC(=O)[C@H](CC(=O)O)NC1=O [ET01813]
- IC50 [6]: > 15 µM
- IC50 [7]: > 15 µM
- IC50 [8]: > 15 µM
- IC50 [9]: > 15 µM
- % unbound (Cbuffer/Cplasma) Mouse plasma 1: 24.7%
- % unbound (Cbuffer/Cplasma) Mouse plasma 2: 22.2%
- % unbound (Cbuffer/Cplasma) Mouse plasma 3: 18.8%
- % unbound (Cbuffer/Cplasma) Mouse plasma Average: 21.9%
- CLs ([2]; male, CD-1, mouse, iv, 5 mg/kg): 114.8 mL/min/kg
- calculated oral bioavailability ([2]; mouse): ~1%
- terminal half-life ([2]; mouse): ~2 h
- tmax ([2]; mouse, po, 40 mg/kg): 5 min
- % recovery [3]: 89%
- Control buffer/Buffer at 0.1 uM Cdonor/Creceiver [4]: 94%
- % unbound (Cbuffer/Cplasma) Rat plasma 1 [5]: 15.8%
- % unbound (Cbuffer/Cplasma) Rat plasma 2 [5]: 20.1%
- % unbound (Cbuffer/Cplasma) Rat plasma 3 [5]: 21.7%
- % unbound (Cbuffer/Cplasma) Rat plasma Average [5]: 19.2%

The remaining lines, values ahead:

- % unbound (Cbuffer/Cplasma) Mouse plasma 3: 9.3%
- % unbound (Cbuffer/Cplasma) Mouse plasma Average: 9.5%
- % recovery [3]: 143%
- Control buffer/Buffer at 0.1 uM Cdonor/Creceiver [4]: 86%
- % recovery [4]: 103%
- % unbound (Cbuffer/Cplasma) Rat plasma 1 [5]: 16.2%
- % unbound (Cbuffer/Cplasma) Rat plasma 2 [5]: 17.4%
- % unbound (Cbuffer/Cplasma) Rat plasma Average [5]: 15.7%
SMILES: CC[C@H](C)[C@@H]1NC(=O)[C@H](CC(=O)O)NC(=O)[C@H](CC(C)C)NC(=O)[C@H](Cc2ccc3ccccc3c2)NC(=O)[C@@H]2CCCN2[C@H](C(=O)NC(C)(C)C)[C@H](C)NC1=O [ET01827]

- IC50 ([6]; human): > 15 µM
- IC50 ([7]; human): > 15 µM
- IC50 ([8]; human): > 15 µM
- IC50 ([9]; human): > 15 µM
- recovery at 5 hours, 1 microM ([3]; Sprague-Dawley, rat): 94%
- fraction unbound at 5 h, 1 microM [3, 10]: 0.833
- fraction unbound at 5 h, 1 microM [3, 11]: 0.761
- fraction unbound at 5 h, 1 microM [3, 12]: 0.702
- fraction unbound at 5 h, 1 microM [3, 13]: 0.765
- recovery at 5 hours, 1 microM ([4]; CD-1, mouse): 150%
- fraction unbound at 5 h, 1 microM [4, 14]: 0.806
- fraction unbound at 5 h, 1 microM [4, 15]: 0.744
- fraction unbound at 5 h, 1 microM [4, 16]: 0.757
- fraction unbound at 5 h, 1 microM [4, 17]: 0.769
- Control buffer/Buffer at 0.1 uM Cdonor/Creceiver [4]: 79%
- recovery at 5 hours, 0.1 uM ([4]; buffer/buffer equilibrium dialysis control (HTDialysis)): 99%
SMILES: CC(C)C[C@@H]1NC(=O)[C@H](Cc2c[nH]c3ccccc23)NC(=O)[C@@H]2CCCN2[C@H](C(=O)NC(C)(C)C)[C@H](C)NC(=O)[C@H]([C@@H](C)O)NC(=O)[C@H](CC(=O)O)NC1=O [ET00762]
